According to patent US11027027B2, “Pyridazinoindole compounds and methods for PET imaging” (Vanderbilt University, priority 2015, dated 2021):
Read-outs that look alike come from different tables or passages of the source.

Legend:
TSPO [1] = biological target: T1, TSPO (Rattus norvegicus, UniProt P16257); test: TSPO radiometric binding assay, heart lysate, displacement of [3H]PK11195
Procedure: (§1) Affinities are expressed as Ki±S.E.M. (pM) in Table 1. All experiments were performed in triplicate.
(§2) Male Wistar rats were sacrificed and the heart and kidney collected and dissected. The tissues were homogenized in 20 volumes of ice-cold PBS buffer (pH 7.4) with a Brinkmann microhomogenizer (Kinematica AG, Luzern, SW). The homogenate was collected at a protein concentration of 5.0 mg/mL and stored at −80° C. C6 cells were collected and washed with PBS buffer three times, and then frozen and thawed three times in lysis buffer (5.0 mM HEPES, 0.21 M D-mannitol, 0.07 M sucrose, 2.0 mM benzamidine, 2.0 mM toluenesulfonyl fluoride, 4.0 mM MgCl2, pH 7.4) to produce C6 cell lysate (0.5 mg/mL). […] The reaction was terminated by rapid filtration through a Brandel harvester (Gaithersburg, Md., USA) and collection onto a filter presoaked with 0.3% polyethyleneimine. Filters were then punched out into scintillation vials and bound radioactivity measured on a Beckman LS 6000 Scintillation Counter (Brea, Calif., USA). […] All experiments were performed in triplicate.

TSPO [2] = biological target: T1, TSPO; test: TSPO radiometric binding assay, C6 glioma cell lysate, displacement of [3H]PK11195; parameters: frozen and thawed three times in lysis buffer; endogenous in cells; host or cells: C6 rat glioma cells
Procedure: as §1, §2

[3] = biological target: central benzodiazepine receptor (CBR); details: value used to calculate Ki; read-out: Kd for flunitrazepam; cited from earlier work
TSPO [4] = biological target: T1, TSPO; test: Binding affinity to TSPO of fluorescent probes
From the text: Binding affinity to TSPO of fluorescent probes 23-29.

C6 glioma = test: Dynamic microPET imaging of tracer uptake in C6 glioma-bearing rats; format: in vivo, rat
Procedure: (§3) Uptake Characteristics of [^18F]-14 in C6 Glioma. The in vivo performance of [^18F]-14 was evaluated in glioma-bearing (C6), male Wistar rats using microPET imaging, with a typical study shown in FIG. 1. MRI (T2-weighted) was used to localize tumors and for registration of anatomical features with PET (FIG. 1A).^11,12,18 Dynamic PET imaging with [^18F]-14 illustrated that the majority of tracer accumulation in the brain was localized to the tumor, with modest accumulation that exceeded plasma in contralateral, non-tumor brain (FIGS. 1B & 1C). The tumor-selective characteristics of [^18F]-14 afforded excellent imaging contrast between tumor and contralateral tissue. FIG. 1G illustrates time—activity curves (TACs) typical of representative studies for tumor (blue), normal brain (green), and plasma (red) over a 90-min dynamic acquisition.
All studies involving animals were conducted in compliance with federal and institutional guidelines. Two weeks before imaging, healthy male Wistar rats were stereotactically inculcated in the right hemisphere with 1.0×10^5 C6 glioma cells (American Type Tissue Collection). Prior to imaging, all rats were affixed with venous and arterial catheters.
PET/CT was performed within 24 hours of MRI in rats with confirmed tumors. Tumor-bearing rats were administered [^18F]-14 via jugular catheter while in a microPET Focus 220 scanner (Siemens, Munich, Del.). […]

[5] = Radio-TLC radiometabolite analysis of plasma; format: in vivo, rat; details: plasma samples, n=2, preliminary
Procedure: as §3
Arterial blood (500 μL) was collected at 2, 12, 30, and 60 minutes following injection of 1.5 mCi of [^18F]-14. After centrifugation, the plasma was extracted with acetonitrile/water (50 μL, 7/1, v/v). The mixture was then centrifuged and the supernatant used for TLC analysis in 10% dichloromethane in methanol. Radiochromatographic data were recorded and collected using a radioisotope detector (Bioscan, Washington, D.C., USA).

TSPO [6] = biological target: T1, TSPO; test: In vivo PET displacement study with non-radioactive 14 in C6-bearing rats; parameters: frozen and thawed three times in lysis buffer; endogenous in cells; host or cells: C6 rat glioma cells
Procedure: Specific Binding of [^18F]-14 in Rats. To evaluate the in vivo TSPO specificity of [^18F]-14, the present inventors performed displacement studies in C6-bearing rats using the non-radioactive analog (14). As shown in the TAC in FIG. 1H, during the dynamic PET study, a bolus (IV) infusion of nonradioactive 14 (10 mg/kg) was administered approximately 30 minutes after injection of [^18F]-14. […] During tumor displacement, the present inventors observed a minor influx of tracer into normal brain (green). The displaced [^18F]-14 then rapidly cleared the normal brain and entered the plasma, subsequently elevating plasma (red) radioactivity.
PET/CT was performed within 24 hours of MRI in rats with confirmed tumors. Tumor-bearing rats were administered [^18F]-14 via jugular catheter while in a microPET Focus 220 scanner (Siemens, Munich, Del.). Data were collected in list-mode format for 90 minutes, followed by a CT scan (microCAT II; Siemens) for attenuation correction.
The dynamic PET acquisition was divided into twelve 10-s frames for the first two minutes, three 60-second frames for the following three minutes, and seventeen 300-second frames for the duration of the scan. The raw data within each frame were then binned into three-dimensional sinograms, with a span of three and ring difference of 47. […]

TSPO [7] = biological target: T1, TSPO; parameters: frozen and thawed three times in lysis buffer; endogenous in cells; host or cells: C6 rat glioma cells; details: cited from earlier work
[8] = biological target: central benzodiazepine receptor (CBR); test: CBR binding assay, displacement of [3H]flunitrazepam in rat brain (cerebral cortex) lysate; details: rat brain lysate / cerebral cortex membranes; selectivity for TSPO over CBR; read-out: Ki versus [3H]flunitrazepam
Procedure: as §1
The homogenate was collected at a protein concentration of 5.0 mg/mL and stored at −80° C. […] All experiments were performed in triplicate.

TSPO [9] = biological target: T1, TSPO; test: TSPO radiometric binding assay, kidney lysate, displacement of [3H]PK11195
Procedure: as §1, §2

PBR = PBR (Homo sapiens, UniProt P30536); details: cited from earlier work
[10] = Ki ± S.E.M. versus [3H]PK11195, C6 lysate, high-affinity value where binding is mixed, triplicate, read-out: C6 Glioma Ki
[11] = Ki ± S.E.M. versus [3H]PK11195, rat heart lysate, triplicate
[12] = versus [3H]PK11195, C6 lysate, low-affinity component, read-out: C6 Glioma Ki, low-affinity binding (mixed affinity binding)

Chain of PBR (P30536 whole entry, species assumed): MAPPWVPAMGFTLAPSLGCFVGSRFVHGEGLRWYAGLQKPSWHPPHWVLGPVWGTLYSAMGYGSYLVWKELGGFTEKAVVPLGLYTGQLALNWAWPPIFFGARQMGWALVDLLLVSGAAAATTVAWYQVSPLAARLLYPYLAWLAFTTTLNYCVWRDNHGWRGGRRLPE

## CN(C)C(=O)Cc1nn(-c2cccc([N+](=O)[O-])c2)c(=O)c2c1c1ccc(Cl)cc1n2C [Compound 11, 2-(7-Chloro-5-methyl-3-(3-nitrophenyl)-4-oxo-4,5-dihydro-3H-pyridazino[4,5-b]indol-1-yl)-N,N-dimethylacetamide]
TSPO [1]
  Ki: 0.00118 ± 9e-05 nM

## CN(C)C(=O)Cc1nn(-c2cccc(Br)n2)c(=O)c2c1c1ccc(Cl)cc1n2C [Compound 16, 2-(7-Chloro-3-(6-bromopyridin-2-yl)-5-methyl-4-oxo-4,5-dihydro-3H-pyridazino[4,5-b]indol-1-yl)-N,N-dimethylacetamide]
TSPO [2]; [10]
  Ki: 0.00148 ± 0.0002 nM

## CN1C(=O)CN=C(c2ccccc2F)c2cc([N+](=O)[O-])ccc21 [flunitrazepam]
[3]
  Kd: 1.1 nM

## CCc1cc(CC)n2nc(-c3ccc(OCCNC(=S)Nc4ccc5c(c4)C(=O)OC54c5ccc(O)cc5Oc5cc(O)ccc54)cc3)c(CC(=O)N(CC)CC)c2n1 [Compound 23]
TSPO [4]
  Ki: 13.8 ± 4.99 nM

## CN(C)C(=O)Cc1nn(-c2cccc([18F])n2)c(=O)c2c1c1ccc(Cl)cc1n2C [[^18F]-14, 7-chloro-N,N,5-trimethyl-4-oxo-3(6-[^18F]fluoropyridin-2-yl)-3,5-dihydro-4H-pyridazino[4,5-b]indole-1-acetamide]
C6 glioma; preclinical model of glioma (C6), PET
  tracer accumulation in normal brain and tumor: modest accumulation in normal brain, yet robust accumulation in tumor tissue
C6 glioma; time-activity curve, 90-min dynamic acquisition
  plasma clearance of tracer: quickly cleared the plasma
[5]
  % parent at 60 min: > 90%
TSPO [6]; bolus IV nonradioactive 14 (10 mg/kg) about 30 min after tracer
  tumor binding after injection of 14, % of the peak tumor uptake: approximately 40%
TSPO [6]; non-radioactive 14 given halfway through the PET scan
  displaceability by non-radioactive 14: fully displaceable

## CCc1cc(CC)n2nc(-c3ccc(OCCCNC(=S)Nc4ccc5c(c4)C(=O)OC54c5ccc(O)cc5Oc5cc(O)ccc54)cc3)c(CC(=O)N(CC)CC)c2n1 [Compound 24]
TSPO [4]
  Ki: 111 ± 25.6 nM

## CCc1cc(CC)n2nc(-c3ccc(OCCCCCCCNC(=S)Nc4ccc5c(c4)C(=O)OC54c5ccc(O)cc5Oc5cc(O)ccc54)cc3)c(CC(=O)N(CC)CC)c2n1 [Compound 28]
TSPO [4]
  Ki: 16.3 ± 5.01 nM

## CCc1cc(CC)n2nc(-c3ccc(OCCCCCCCCNC(=S)Nc4ccc5c(c4)C(=O)OC54c5ccc(O)cc5Oc5cc(O)ccc54)cc3)c(CC(=O)N(CC)CC)c2n1 [Compound 29]
TSPO [4]
  Ki: 0.31 ± 0.02 nM

## CCc1cc(CC)n2nc(-c3ccc(OCC[18F])cc3)c(CC(=O)N(CC)CC)c2n1 [[^18F]-2b, 2-(5,7-diethyl-2-(4-(2-[^18F]fluoroethoxy)phenyl)pyrazolo[1,5-a]pyrimidin-3-yl)-N,N-diethylacetamide]
TSPO [7]; TSPO
  enhancement in affinity compared to [18F]-2a: 36 fold

## CN(C)C(=O)Cc1nn(-c2cccc(F)n2)c(=O)c2c1c1ccc(Cl)cc1n2C [Compound 14, 2-(7-Chloro-3-(6-fluoropyridin-2-yl)-5-methyl-4-oxo-4,5-dihydro-3H-pyridazino[4,5-b]indol-1-yl)-N,N-dimethylacetamide]
TSPO [1]; [11]
  Ki: 0.00321 ± 0.0004 nM
[8]
  Ki: > 10000 nM
TSPO [9]; Ki ± S.E.M. versus [3H]PK11195, rat kidney lysate, high-affinity value where binding is mixed, triplicate, read-out: Kidney Ki
  Ki: 0.00221 ± 0.0004 nM
TSPO [2]; [10]
  Ki: 0.00119 nM
TSPO [2]; TSPO, in our lab
  increase in potency over 2b: 1000 fold
TSPO [2]; [12]
  Ki: 1.77 nM

## COc1ccc(OC)c(CN(C(C)=O)c2cc(F)ccc2Oc2ccccc2)c1 [DAA1106]
PBR
  binding affinity for PBR: fentomolar

## COc1ccc(OC)c(CN(C(=O)CF)c2ccccc2Oc2ccccc2)c1 [Compound 1, reference compound]
TSPO [7]; read-out: Ki for TSPO in C6 glioma (reported), literature values
  Ki: 6.17 nM

## CN(C)C(=O)Cc1nn(-c2cccc(Cl)n2)c(=O)c2c1c1ccc(Cl)cc1n2C [Compound 15, 2-(7-Chloro-3-(6-chloropyridin-2-yl)-5-methyl-4-oxo-4,5-dihydro-3H-pyridazino[4,5-b]indol-1-yl)-N,N-dimethylacetamide]
TSPO [2]; [10]
  Ki: 0.00234 ± 0.0004 nM

## CCc1cc(CC)n2nc(-c3ccc(OCCCCCCNC(=S)Nc4ccc5c(c4)C(=O)OC54c5ccc(O)cc5Oc5cc(O)ccc54)cc3)c(CC(=O)N(CC)CC)c2n1 [Compound 27]
TSPO [4]
  Ki: 11.7 ± 4.86 nM

## CCc1cc(CC)n2nc(-c3ccc(OCCCCCNC(=S)Nc4ccc5c(c4)C(=O)OC54c5ccc(O)cc5Oc5cc(O)ccc54)cc3)c(CC(=O)N(CC)CC)c2n1 [Compound 26]
TSPO [4]
  Ki: 185 ± 15.4 nM

## CN(C)C(=O)Cc1nn(-c2ccccn2)c(=O)c2c1c1ccc(Cl)cc1n2C [Compound 13, 2-(7-Chloro-5-methyl-4-oxo-3-(pyridin-2-yl)-4,5-dihydro-3H-pyridazino[4,5-b]indol-1-yl)-N,N-dimethylacetamide]
TSPO [1]
  Ki: 4.94 nM
TSPO [1]; [11]
  Heart Ki: did not appreciably bind TSPO
TSPO [9]; Ki ± S.E.M. versus [3H]PK11195, rat kidney lysate, high-affinity value where binding is mixed, triplicate
  Kidney Ki: did not appreciably bind TSPO
TSPO [9]; read-out: Kidney Ki
  Ki: 6.8 nM
TSPO [2]; Ki ± S.E.M. versus [3H]PK11195, C6 lysate, high-affinity value where binding is mixed, triplicate
  C6 Glioma Ki: did not appreciably bind TSPO
TSPO [2]; [10]
  Ki: 2.41 nM

## CN(C)C(=O)Cc1nn(-c2ccc(F)cc2)c(=O)c2c1c1ccc(Cl)cc1n2C [Compound 12, 2-(7-Chloro-3-(4-fluorophenyl)-5-methyl-4-oxo-4,5-dihydro-3H-pyridazino[4,5-b]indol-1-yl)-N,N-dimethylacetamide]
TSPO [9]; read-out: Kidney Ki, low-affinity binding (mixed affinity binding)
  Ki: 0.969 nM
TSPO [2]; [12]
  Ki: 3.02 ± 1.01 nM

## CN(C)C(=O)Cc1nn(-c2ccccc2F)c(=O)c2c1c1ccc(Cl)cc1n2C [Compound 9, 2-(7-Chloro-3-(2-fluorophenyl)-5-methyl-4-oxo-4,5-dihydro-3H-pyridazino[4,5-b]indol-1-yl)-N,N-dimethylacetamide]
TSPO [9]; read-out: Kidney Ki
  Ki: 0.00118 ± 4e-05 nM
